Measured values from US12655116B2, “Substituted isophthalic acid diamides” (Bayer Aktiengesellschaft, priority 2020, dated 2026).

Assays:
AMARE [1] = assay: Pre-emergence herbicidal action against AMARE; type: in vivo, Amaranthus retroflexus
Procedure, shortened: (§1)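 Seeds sown in sandy loam, soil-covered; compound sprayed on soil surface pre-emergence. Application: WP/EC, 600–800 l/ha, 0.2% wetting agent. Readout: visual % damage at 3 weeks.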

SETVI [2] = assay: Post-emergence herbicidal action against SETVI; type: in vivo, Setaria viridis
Procedure, shortened: (§2)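 Percent herbicidal action is rated by eye about 3 weeks after treatment against untreated controls, where 100% means dead plants and 0% means like controls. Plants in sandy loam are sprayed on green parts at the one-leaf stage with aqueous WP or EC preparations at 600 to 800 l/ha plus 0.2% wetting agent.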

ECHCG [3] = assay: Post-emergence herbicidal action against ECHCG; type: in vivo, Echinochloa crus-galli
Procedure, shortened: as §2

ALOMY [4] = assay: Pre-emergence herbicidal action against ALOMY; type: in vivo, Alopecurus myosuroides; settings: for Pre-emergence action against ALOMY (herbicidal activity): 80 g/ha, scored visually after 3 weeks vs untreated controls (100% = plants have died, 0% = like control plants)
Procedure, shortened: as §1

VIOTR [5] = assay: Pre-emergence herbicidal action against VIOTR; type: in vivo, Viola tricolor
Procedure, shortened: as §1

DIGSA [6] = assay: Post-emergence herbicidal action against DIGSA; type: in vivo, Digitaria sanguinalis; settings: for Post-emergence action against DIGSA: 20 g/ha; for Post-emergence action against DIGSA in %: 5 g/ha
Procedure, shortened: as §2

ALOMY [7] = assay: Post-emergence herbicidal action against ALOMY; type: in vivo, Alopecurus myosuroides; settings: dosage 20 g/ha, visual assessment about 3 weeks after treatment vs untreated controls
Procedure, shortened: as §2

SETVI [8] = assay: Pre-emergence herbicidal action against SETVI; type: in vivo, Setaria viridis
Procedure, shortened: as §1

MATIN [9] = assay: Post-emergence herbicidal action against MATIN; type: in vivo, Matricaria inodora
Procedure, shortened: as §2

PHBPU [10] = assay: Post-emergence herbicidal action against PHBPU; type: in vivo, Pharbitis purpurea
Procedure, shortened: as §2

POLCO = assay: Pre-emergence herbicidal action against POLCO; type: in vivo, Polygonum convolvulus; settings: dosage 80 g/ha
Procedure, shortened: as §1

ECHCG [11] = assay: Pre-emergence herbicidal action against ECHCG; type: in vivo, Echinochloa crus-galli
Procedure, shortened: as §1

ABUTH [12] = assay: Pre-emergence herbicidal action against ABUTH; type: in vivo, Abutilon theophrasti; settings: for Pre-emergence action against ABUTH (herbicidal activity): 80 g/ha, scored visually after 3 weeks vs untreated controls (100% = plants have died, 0% = like control plants); for Pre-emergence action against ABUTH (herbicidal activity in percent): dosage 20 g/ha, scored visually after 3 weeks vs untreated controls, 100% = plants have died, 0% = like control plants
Procedure, shortened: as §1

AMARE [13] = assay: Post-emergence herbicidal action against AMARE; type: in vivo, Amaranthus retroflexus; settings: 20 g/ha, visual assessment about 3 weeks after treatment, 100% = plants have died, 0% = like control plants
Procedure, shortened: as §2

ABUTH [14] = assay: Post-emergence herbicidal action against ABUTH; type: in vivo, Abutilon theophrasti; settings: visual assessment about 3 weeks after treatment vs untreated controls
Procedure, shortened: as §2

VERPE [15] = assay: Post-emergence herbicidal action against VERPE; type: in vivo, Veronica persica; settings: 20 g/ha
Procedure, shortened: as §2

VERPE [16] = assay: Pre-emergence herbicidal action against VERPE; type: in vivo, Veronica persica
Procedure, shortened: as §1

VIOTR [17] = assay: Post-emergence herbicidal action against VIOTR; type: in vivo, Viola tricolor
Procedure, shortened: as §2

PHBPU [18] = assay: Pre-emergence herbicidal action against PHBPU; type: in vivo, Pharbitis purpurea
Procedure, shortened: as §1

AVEFA [19] = assay: Post-emergence herbicidal action against AVEFA; type: in vivo, Avena fatua; settings: visual assessment about 3 weeks after treatment, 100% = plants have died, 0% = like control plants
Procedure, shortened: as §2

AVEFA [20] = assay: Pre-emergence herbicidal action against AVEFA; type: in vivo, Avena fatua; settings: 80 g/ha, pre-emergence
Procedure, shortened: as §1

MATIN [21] = assay: Pre-emergence herbicidal action against MATIN; type: in vivo, Matricaria inodora
Procedure, shortened: as §1

DIGSA [22] = assay: Pre-emergence herbicidal action against DIGSA; type: in vivo, Digitaria sanguinalis
Procedure, shortened: as §1

[23] = 20 g/ha, scored visually after 3 weeks vs untreated controls, 100% = plants have died, 0% = like control plants
[24] = 80 g/ha, scored visually after 3 weeks vs untreated controls (100% = plants have died, 0% = like control plants)

Structure (SMILES) | Pre-emergence action against AMARE in % (AMARE [1]; [23]) | Pre-emergence action against AMARE in % (AMARE [1]; [24]) | Post-emergence action against SETVI in % (SETVI [2]; dosage 20 g/ha) | Post-emergence action against ECHCG in % (ECHCG [3]; dosage 20 g/ha) | Pre-emergence action against ALOMY (herbicidal activity) (ALOMY [4]) | Pre-emergence action against VIOTR in % (VIOTR [5]; dosage 20 g/ha) | Pre-emergence action against VIOTR in % (VIOTR [5]; dosage 80 g/ha) | Post-emergence action against ALOMY in % (ALOMY [7]) | Pre-emergence action against SETVI in % (SETVI [8]; dosage 80 g/ha) | Pre-emergence action against POLCO in % (POLCO) | Pre-emergence action against ECHCG in % (ECHCG [11]; 80 g/ha) | Pre-emergence action against ABUTH (herbicidal activity) (ABUTH [12]) | Pre-emergence action against ABUTH (herbicidal activity in percent) (ABUTH [12]) | Post-emergence action at 20 g/ha against AMARE in % (AMARE [13]) | Post-emergence action against ABUTH in % (ABUTH [14]; dosage 20 g/ha) | Post-emergence action against VERPE in % (VERPE [15]) | Pre-emergence action against VERPE in % (VERPE [16]; dosage 80 g/ha) | Pre-emergence action against PHBPU in % (PHBPU [18]; dosage 80 g/ha) | Post-emergence action at 20 g/ha against AVEFA in % (AVEFA [19]) | Pre-emergence action against AVEFA in % (AVEFA [20]) | further results
CCNC(=O)c1c(C(F)F)ccc(C(=O)Nc2nnnn2CC)c1Br [Example 2-226] | 100% | 100% | 100% | 90% | 90% | 100% | 100% | 90% | 100% | 80% | 100% | 80% | 80% | 100% | 90% | 90% | 100% | 100% | 80% | 100% | Post-emergence action against SETVI in % (SETVI [2]; dosage 5 g/ha): 100%; Post-emergence action against DIGSA (DIGSA [6]): 80%; Pre-emergence action against SETVI in % (SETVI [8]; dosage 20 g/ha): 80%; Post-emergence action against MATIN in % (MATIN [9]; dosage 20 g/ha): 80%; Post-emergence action against PHBPU in % (PHBPU [10]; dosage 20 g/ha): 80%; Pre-emergence action against ECHCG in % (ECHCG [11]; 20 g/ha): 100%; Post-emergence action against VIOTR in % (VIOTR [17]; 5 g/ha): 90%; Post-emergence action against VIOTR in % (VIOTR [17]; 20 g/ha): 100%; Pre-emergence action against MATIN in % (MATIN [21]; dosage 20 g/ha): 90%; Pre-emergence action against MATIN in % (MATIN [21]; dosage 80 g/ha): 100%
CCn1nnnc1NC(=O)c1ccc(C(F)(F)F)c(C(=O)NCCOC)c1C [Example 2-34] | 90% | 100% | 90% | 100% | 90% | 100% | 100% | 100% | 100% | 90% | 90% | 100% | 80% | 100% | 90% | 80% | 90% | 80% | 80% | 90% | Post-emergence action against SETVI in % (SETVI [2]; dosage 5 g/ha): 80%; Post-emergence action against ECHCG in % (ECHCG [3]; dosage 5 g/ha): 90%; Pre-emergence action against ALOMY (ALOMY [4]; 20 g/ha, scored visually after 3 weeks, 100% = plants have died, 0% = like control plants): 80%; Post-emergence action against DIGSA in % (DIGSA [6]): 80%; Post-emergence action against DIGSA (DIGSA [6]): 100%; Pre-emergence action against SETVI in % (SETVI [8]; dosage 20 g/ha): 100%; Pre-emergence action against DIGSA in % (DIGSA [22]; dosage 20 g/ha): 100%; Pre-emergence action against DIGSA in % (DIGSA [22]; dosage 80 g/ha): 100%; Post-emergence action against PHBPU in % (PHBPU [10]; dosage 5 g/ha): 90%; Post-emergence action against PHBPU in % (PHBPU [10]; dosage 20 g/ha): 100%; Post-emergence action against ABUTH in % (ABUTH [14]; dosage 5 g/ha): 90%; Pre-emergence action against VERPE in % (VERPE [16]; dosage 20 g/ha): 90%; Post-emergence action at 5 g/ha against AVEFA in % (AVEFA [19]; 5 g/ha): 80%; Pre-emergence action against MATIN in % (MATIN [21]; dosage 20 g/ha): 90%; Pre-emergence action against MATIN in % (MATIN [21]; dosage 80 g/ha): 100%
CCn1nnnc1NC(=O)c1ccc(C(F)(F)F)c(C(=O)NC(C)C2CC2)c1C1CC1 (centres unmarked) [Example 2-292] | 100% | 100% | 80% | 80% | 90% | 100% | 100% | 80% | 100% | 100% | 100% | 100% | 100% | 90% | 80% | 80% | 100% | 90% | 80% | 90% | Post-emergence action against ECHCG in % (ECHCG [3]; dosage 5 g/ha): 80%; Post-emergence action against DIGSA in % (DIGSA [6]): 90%; Post-emergence action against DIGSA (DIGSA [6]): 90%; Pre-emergence action against DIGSA in % (DIGSA [22]; dosage 20 g/ha): 100%; Pre-emergence action against DIGSA in % (DIGSA [22]; dosage 80 g/ha): 100%; Post-emergence action against MATIN in % (MATIN [9]; dosage 5 g/ha): 80%; Post-emergence action against MATIN in % (MATIN [9]; dosage 20 g/ha): 90%; Pre-emergence action against VERPE in % (VERPE [16]; dosage 20 g/ha): 90%; Post-emergence action against VIOTR in % (VIOTR [17]; 20 g/ha): 80%; Pre-emergence action against PHBPU in % (PHBPU [18]; dosage 20 g/ha): 80%; Pre-emergence action against MATIN in % (MATIN [21]; dosage 20 g/ha): 90%; Pre-emergence action against MATIN in % (MATIN [21]; dosage 80 g/ha): 100%
CSc1c(C(=O)Nc2nnnn2C)ccc(C(F)(F)F)c1C(=O)NCC(F)F [Example 1-86] | 100% | 100% | 80% | 100% | 100% | 100% | 100% | 100% | 100% | 80% | 100% | 100% | 100% | 100% | 100% | 90% | 100% | 80% | 100% | 100% | Post-emergence action against ECHCG in % (ECHCG [3]; dosage 5 g/ha): 80%; Pre-emergence action against SETVI in % (SETVI [8]; dosage 20 g/ha): 80%; Post-emergence action against MATIN in % (MATIN [9]; dosage 20 g/ha): 80%; Post-emergence action against PHBPU in % (PHBPU [10]; dosage 5 g/ha): 80%; Post-emergence action against PHBPU in % (PHBPU [10]; dosage 20 g/ha): 90%; Pre-emergence action against ECHCG in % (ECHCG [11]; 20 g/ha): 90%; Post-emergence action against ABUTH in % (ABUTH [14]; dosage 5 g/ha): 100%; Post-emergence action against VIOTR in % (VIOTR [17]; 5 g/ha): 90%; Post-emergence action against VIOTR in % (VIOTR [17]; 20 g/ha): 100%; Pre-emergence action against MATIN in % (MATIN [21]; dosage 20 g/ha): 100%; Pre-emergence action against MATIN in % (MATIN [21]; dosage 80 g/ha): 100%
